According to US20240368121A1, “ESTROGEN RECEPTOR DEGRADERS, PHARMACEUTICAL COMPOSITIONS THEREOF, AND THEIR THERAPEUTIC APPLICATIONS” (BioTheryX, Inc., priority 2021, published 2024):

How the values were obtained:
ERα = biological target: T1, ERα (Homo sapiens, UniProt P03372); test: Protein degradation assay: ERα in MCF-7 cells via western blot; format: cell-based; details: 6 h; for ERα Protein Degradation 1 nM: 1 nM compound; for ERα Protein Degradation 10 nM: 10 nM compound; for ERα Protein Degradation 100 nM: 100 nM compound
T1 construct: degrading an ERα in MCF-7 cells via a western blot; endogenous in cells; host or cells: MCF-7
T1 sequence (P03372 1-595): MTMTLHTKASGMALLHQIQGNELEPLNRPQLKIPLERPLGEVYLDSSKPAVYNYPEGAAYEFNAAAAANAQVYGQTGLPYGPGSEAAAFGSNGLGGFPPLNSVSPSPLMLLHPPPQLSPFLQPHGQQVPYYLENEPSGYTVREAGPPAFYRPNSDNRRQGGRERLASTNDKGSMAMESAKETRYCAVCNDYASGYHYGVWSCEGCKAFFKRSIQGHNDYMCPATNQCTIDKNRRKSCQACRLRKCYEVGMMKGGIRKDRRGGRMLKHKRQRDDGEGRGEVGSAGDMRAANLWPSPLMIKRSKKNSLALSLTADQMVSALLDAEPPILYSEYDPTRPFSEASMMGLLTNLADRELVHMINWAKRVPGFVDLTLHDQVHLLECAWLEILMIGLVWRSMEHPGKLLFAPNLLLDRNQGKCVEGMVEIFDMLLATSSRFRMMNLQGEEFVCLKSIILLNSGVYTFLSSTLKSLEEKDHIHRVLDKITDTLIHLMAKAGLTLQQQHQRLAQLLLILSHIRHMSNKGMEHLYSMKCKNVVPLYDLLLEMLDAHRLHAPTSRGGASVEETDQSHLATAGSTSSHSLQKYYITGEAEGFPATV
Experimental: A compound provided herein was assessed for its activity in degrading an ERα in MCF-7 cells via a western blot. The MCF7 cells were cultured at 37° C. in a humidified 5% C02 environment in MEM supplemented with 10% FBS with insulin. The cells were seeded in 12-well plates at a density of 300,000 cells per well in maintenance media. Cells were treated with the compound at predetermined concentrations (e.g., 1 nM, 10 nM, 100 nM, and 1 μM) for 6 h. The cells were then washed in PBS and the whole cells were lysed in a cell lysis buffer and incubated for 15 minutes on ice. Cell debris was removed by high-speed centrifugation and the cleared whole cell lysates were prepared for further analysis by a western blot. The whole cell protein extracts were separated on SDS-polyacrylamide gels, transferred to nitrocellulose membranes, and probed with primary antibodies, including anti-ERα antibody and GAPDH antibody for loading control. The membranes were subsequently washed and probed with secondary antibodies for chemiluminescence, followed by imaging on a BIORAD CHEMIDOC Imaging System. The results are summarized in Table 2, where “A” represents a percentage degradation value of no less than 50%; “B” represents a percentage degradation value of less than 50% and no less than 25%; “C” represents a percentage degradation value of less than 25% and no less than 10%; and “D” represents a percentage degradation value of less than 10%.

MCF7 cells = test: Cell viability assay ([…]-GLO, 6-day treatment); format: cell-based; details: Homo sapiens, MCF7, 144 h; MCF-7 cells, 6 days, CTG; read-out: Inhibition of Cancerous Cells IC50 MCF-7
Experimental: A compound provided herein was evaluated for its anticancer activity in MCF7 and T47D cells. MCF7 and T47D cells were cultured at 37° C. in a humidified 5% C02 environment in MEM or RPMI, supplemented with 10% FBS with insulin, respectively. The cells were plated in 384-well microplates at a density of 1,000 cells per well in their respective maintenance media. The cells were treated with the compound by a 10-point dose response curve for 6 days, during which, the medium and compound were refreshed once. After the 6-day treatment, the cell viability was assessed using […]-GLO (CTG) reagent. Luminescence was measured with a microplate reader.

| Compound | IC50 (MCF7 cells) [nM] | ERα Protein Degradation 1 nM (ERα) | ERα Protein Degradation 10 nM (ERα) | ERα Protein Degradation 100 nM (ERα) |
| --- | --- | --- | --- | --- |
| O=C1CCC(N2Cc3sc(C4CCN(CCCCOc5ccc([C@@H]6c7ccc(O)cc7CC[C@@H]6c6ccccc6)cc5)CC4)cc3C2=O)C(=O)N1 (stereo partly drawn) [Compound A20, 3-(2-(1-(4-(4-((1R,2S)-6-Hydroxy-2-phenyl-1,2,3,4-tetrahydronaphthalen-1-yl)-phenoxy)butyl)piperidin-4-yl)-4-oxo-4,6-dihydro-5H-thieno[2,3-c]pyrrol-5-yl)piperidine-2,6-dione] | 0.05 | D (a percentage degradation value of less than 10%) | D (a percentage degradation value of less than 10%) | D (a percentage degradation value of less than 10%) |
| Cn1nc(C2CCC(=O)NC2=O)c2ccc(OCC(=O)N3CCN(CCCCOc4ccc(CC5(C)C(c6ccc(O)cc6)=Nc6ccc(O)cc65)cc4)CC3)cc21 (centres unmarked) [Compound D5, 3-(6-(2-(4-(4-(4-((5-Hydroxy-2-(4-hydroxyphenyl)-3-methyl-3H-indol-3-yl)-methyl)phenoxy)butyl)piperazin-1-yl)-2-oxoethoxy)-1-methyl-1H-indazol-3-yl)piperidine-2,6-dione] | 136 | C (a percentage degradation value of less than 25% and no less than 10%) | D (a percentage degradation value of less than 10%) | C (a percentage degradation value of less than 25% and no less than 10%) |
| O=C1CCC(N2Cc3c(csc3COc3ccc(CNCCCCCOc4ccc([C@@H]5c6ccc(O)cc6CC[C@@H]5c5ccccc5)cc4)cc3)C2=O)C(=O)N1 (stereo in doubt) [Compound A17, 3-(1-((4-(((5-(4-((1R,2S)-6-Hydroxy-2-phenyl-1,2,3,4-tetrahydronaphthalen-1-yl)phenoxy)pentyl)amino)methyl)phenoxy)methyl)-4-oxo-4H-thieno[3,4-c]pyrrol-5(6H)-yl)piperidine-2,6-dione] | 1160 | B (a percentage degradation value of less than 50% and no less than 25%) | C (a percentage degradation value of less than 25% and no less than 10%) | D (a percentage degradation value of less than 10%) |
| Cc1c(-c2ccc(O)cc2)n(Cc2ccc(OCCCCN3CCN(C(=O)COc4cccc5c(N6CCC(=O)NC6=O)nn(C)c45)CC3)cc2)c2ccc(O)cc12 [Compound D23, 1-(7-(2-(4-(4-(4-((5-hydroxy-2-(4-hydroxyphenyl)-3-methyl-1H-indol-1-yl)-methyl)phenoxy)butyl)piperazin-1-yl)-2-oxoethoxy)-1-methyl-1H-indazol-3-yl)dihydro-pyrimidine-2,4(1H,3H)-dione] | 1.7 | C (a percentage degradation value of less than 25% and no less than 10%) | C (a percentage degradation value of less than 25% and no less than 10%) | D (a percentage degradation value of less than 10%) |
| Cn1nc(C2CCC(=O)NC2=O)c2ccc(OCC(=O)N3CCN(CCCCOc4ccc([C@H]5c6ccc(O)cc6CC[C@H]5c5ccccc5)cc4)CC3)cc21 (stereo partly drawn) [Compound B24, 3-(6-(2-(4-(4-(4-((1S,2R)-6-Hydroxy-2-phenyl-1,2,3,4-tetrahydronaphthalen-1-yl)phenoxy)butyl)piperazin-1-yl)-2-oxoethoxy)-1-methyl-1H-indazol-3-yl)piperidine-2,6-dione] | 66 | C (a percentage degradation value of less than 25% and no less than 10%) | C (a percentage degradation value of less than 25% and no less than 10%) | C (a percentage degradation value of less than 25% and no less than 10%) |
| CC1(Cc2ccc(OCCCCN3CCN(C(=O)COc4ccc5c(c4)CN(C4CCC(=O)NC4=O)C5=O)CC3)cc2)C(c2ccc(O)cc2)=Nc2ccc(O)cc21 (centres unmarked) [Compound D3, 3-(5-(2-(4-(4-(4-((5-Hydroxy-2-(4-hydroxyphenyl)-3-methyl-3H-indol-3-yl)-methyl)phenoxy)butyl)piperazin-1-yl)-2-oxoethoxy)-1-oxoisoindolin-2-yl)piperidine-2,6-dione] | 569 | D (a percentage degradation value of less than 10%) | D (a percentage degradation value of less than 10%) | D (a percentage degradation value of less than 10%) |
| O=C1CCN(c2ccc(OCC(=O)N3CCN(CCCCOc4ccc([C@H]5c6ccc(O)cc6CC[C@H]5c5ccccc5)cc4)CC3)cc2)C(=O)N1 [Compound B45, 1-(4-(2-(4-(4-(4-((1S,2R)-6-Hydroxy-2-phenyl-1,2,3,4-tetrahydronaphthalen-1-yl)phenoxy)butyl)piperazin-1-yl)-2-oxoethoxy)phenyl)dihydropyrimidine-2,4(1H,3H)-dione] | 88 | C (a percentage degradation value of less than 25% and no less than 10%) | C (a percentage degradation value of less than 25% and no less than 10%) | C (a percentage degradation value of less than 25% and no less than 10%) |
| Cn1nc([C@@H]2CCC(=O)NC2=O)c2ccc(OCC(=O)N3CCN(CCCCOc4ccc([C@@H]5c6ccc(O)cc6CC[C@@H]5c5ccccc5)cc4)CC3)cc21 [Compound B23, (S)-3-(6-(2-(4-(4-(4-((1R,2S)-6-Hydroxy-2-phenyl-1,2,3,4-tetrahydronaphthalen-1-yl)phenoxy)butyl)piperazin-1-yl)-2-oxoethoxy)-1-methyl-1H-indazol-3-yl)piperidine-2,6-dione] | 0.22 | B (a percentage degradation value of less than 50% and no less than 25%) | B (a percentage degradation value of less than 50% and no less than 25%) | D (a percentage degradation value of less than 10%) |

More lines, main results first:

| IC50 (MCF7 cells) [nM] | Compound | ERα Protein Degradation 1 nM (ERα) | ERα Protein Degradation 10 nM (ERα) | ERα Protein Degradation 100 nM (ERα) |
| --- | --- | --- | --- | --- |
| 1.7 | Cc1c(-c2ccc(O)cc2)n(Cc2ccc(OCCCCN3CCN(C(=O)COc4ccc(C5CCC(=O)NC5=O)cc4)CC3)cc2)c2ccc(O)cc12 (centres unmarked) [Compound E24, 3-(4-(2-(4-(4-(4-((5-hydroxy-2-(4-hydroxyphenyl)-3-methyl-1H-indol-1-yl)-methyl)phenoxy)butyl)piperazin-1-yl)-2-oxoethoxy)phenyl)piperidine-2,6-dione] | D (a percentage degradation value of less than 10%) | D (a percentage degradation value of less than 10%) | D (a percentage degradation value of less than 10%) |
| 3.8 | Cc1c(-c2ccc(O)cc2)n(Cc2ccc(OCCCCN3CCN(C(=O)COc4cccc(N5CCC(=O)NC5=O)c4)CC3)cc2)c2ccc(O)cc12 [Compound E26, 1-(3-(2-(4-(4-(4-((5-Hydroxy-2-(4-hydroxyphenyl)-3-methyl-1H-indol-1-yl)-methyl)phenoxy)butyl)piperazin-1-yl)-2-oxoethoxy)phenyl)dihydropyrimidine-2,4(1H,3H)-dione] | D (a percentage degradation value of less than 10%) | D (a percentage degradation value of less than 10%) | D (a percentage degradation value of less than 10%) |
| 5 | Cc1c(-c2ccc(O)cc2)n(Cc2ccc(OCCCCN3CCN(C(=O)COc4cccc(C5CCC(=O)NC5=O)c4)CC3)cc2)c2ccc(O)cc12 (centres unmarked) [Compound E25, 3-(3-(2-(4-(4-(4-((5-Hydroxy-2-(4-hydroxyphenyl)-3-methyl-1H-indol-1-yl)-methyl)phenoxy)butyl)piperazin-1-yl)-2-oxoethoxy)phenyl)piperidine-2,6-dione] | D (a percentage degradation value of less than 10%) | D (a percentage degradation value of less than 10%) | D (a percentage degradation value of less than 10%) |
